Measurements published in publication PMC7603469, “The biologically functional identification of a novel TIM3-binding peptide P26 in vitro and in vivo” (Cancer Chemotherapy and Pharmacology, 2020).
Where a SMILES comes first, the peptide text is derived from it.

Columns and labels:
TIM3 = target: T1, TIM3 (Mus musculus, UniProt Q8VIM0); test: SPR binding, TIM3 immobilized on chip; conditions: TIM3 50 μg/mL immobilized on nanogold sensor chip (EDC/NHS), flow rate 20 μL/min for about 7 min, read-out: affinity constant (KD)
T1 construct: purchased Chimerigen CHI-MF-210T3-C050
Protocol: Surface plasmon resonance (SPR) assay. The affinity identification between P26 and TIM3 was performed by immobilizing the TIM3 protein (50 μg/mL) on the surface of the nanogold sensor chip after the chip was activated by EDC/NHS. P26/Gal-9 competition assay was performed by immobilizing Gal-9 protein (25 µg/mL) on the sensor chip. Each sample was injected at a flow rate of 20 μL/min for about 7 min. KD, ka, and kd were calculated by Trace Drawer Evaluation (version 2.0).

MC38-hPD-L1 tumor = test: Tumor growth assay, MC38-hPD-L1 tumor-bearing B-hTIM-3 humanized mice; assay type: in vivo, mouse; conditions: P26 5 mg/kg/d, ATE 10 mg/kg/4d, n = 7
Protocol: C57BL/6 mice transgenic for B-hHAVCR2 (TIM3) (Biocytogen, Beijing, China) were used to evaluate the anti-tumor activity of P26 in vivo. After 1 week of adaptive feeding, 6-week-old female mice were inoculated with 0.1 mL of MC38-hPD-L1 cells (1 × 10^6 cells) by subcutaneous injection on the right scapula followed by the measurements of tumor volume and body weight. When the average tumor volume reached about 80 mm^3, mice were randomly divided into […] groups and administrated with different drugs: (A) PBS (control), (B) ATE (PD-L1 inhibitor Atezolizumab, 10 mg/kg/4d, as the positive group), (C) P26 (5 mg/kg/d), and (D) P26 (5 mg/kg/d) plus ATE (10 mg/kg/4d). The weight and tumor volume of the mice were measured twice a week. When the body weight loss (% BWL) was above 20%, the drug was discontinued, and then, ethically acceptable execution to mice was adopted upon the failure of weight loss recovery in 72 h. The weight and volume of tumors were then analyzed.

T1 sequence (Q8VIM0 20-193 limits assumed): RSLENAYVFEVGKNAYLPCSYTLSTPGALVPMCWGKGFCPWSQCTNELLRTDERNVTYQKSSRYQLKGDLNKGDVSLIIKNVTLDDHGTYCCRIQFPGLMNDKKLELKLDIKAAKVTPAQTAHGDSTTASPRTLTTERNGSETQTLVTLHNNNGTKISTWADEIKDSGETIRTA

Kd (TIM3) [µM]	Compound	inhibition of MC38-hPD-L1 tumor growth vs solvent control (in words) (MC38-hPD-L1 tumor; tumor nodules on day 36, Fig. 4b, c)	tumor volume inhibition rate (MC38-hPD-L1 tumor; vs PBS control, start day 10, sacrificed day 36, Fig. 4d) [%]
34.4	CC[C@H](C)[C@H](NC(=O)[C@H](Cc1c[nH]cn1)NC(=O)[C@H](CCSC)NC(=O)[C@@H](NC(=O)[C@@H](NC(=O)[C@H](CC(C)C)NC(=O)[C@@H]1CCCN1C(=O)[C@@H](NC(=O)[C@H](CC(C)C)NC(=O)CN)[C@@H](C)CC)[C@@H](C)O)[C@@H](C)O)C(=O)NCC(=O)N[C@@H](CCCCN)C(=O)O [Peptide P26] (H-GLIPLTTMHIGK-OH)	–	–
–	ATE: PD-L1 inhibitor Atezolizumab, positive group	significantly inhibit the growth	43.71
